Consider 17 compounds from ChEMBL document CHEMBL5512668, “Macrocyclic Azapeptide Nitriles: Structure-Based Discovery of Potent SARS-CoV-2 Main Protease Inhibitors as Antiviral Drugs” (J Med Chem, 2024).

What is called Ki is a measure of affinity in units of concentration, obtained from inhibition or displacement. As usually defined, the IC50 is the concentration that gives 50% inhibition. Low readings indicate greater potency, high ones weaker potency. The half-life is the time in which the quantity being followed falls by half. Usually EC50 stands for the midpoint of the concentration-response curve. Low readings indicate greater potency, high ones weaker potency.

The target in one data set is Procathepsin L (Homo sapiens, UniProt P07711). Kind of data set: Inhibition of human cathepsin L using Z-Phe-Arg-pNA as substrate incubated for 60 mins.
Procathepsin L, sequence (P07711 whole entry): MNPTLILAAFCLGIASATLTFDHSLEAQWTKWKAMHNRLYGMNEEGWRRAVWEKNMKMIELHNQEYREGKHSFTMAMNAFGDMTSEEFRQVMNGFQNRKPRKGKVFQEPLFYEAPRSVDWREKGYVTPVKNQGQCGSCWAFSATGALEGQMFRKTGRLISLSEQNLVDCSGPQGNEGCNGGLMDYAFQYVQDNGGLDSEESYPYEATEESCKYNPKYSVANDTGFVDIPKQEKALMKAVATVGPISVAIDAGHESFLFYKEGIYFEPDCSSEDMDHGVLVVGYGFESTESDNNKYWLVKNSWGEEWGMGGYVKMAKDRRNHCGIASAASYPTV
In data set [1] the target is T1, Replicase polyprotein 1ab (Severe acute respiratory syndrome coronavirus 2, UniProt P0DTD1).
The target in data set [2] is T1, Replicase polyprotein 1ab. The source holds these as a separate data set.
Another data set deals with Cathepsin S (Homo sapiens, UniProt P25774). Kind of data set: Inhibition of recombinant human cathepsin S using Z-Phe-Arg-AMC as substrate incubated for 60 mins.
Cathepsin S, sequence (P25774 whole entry): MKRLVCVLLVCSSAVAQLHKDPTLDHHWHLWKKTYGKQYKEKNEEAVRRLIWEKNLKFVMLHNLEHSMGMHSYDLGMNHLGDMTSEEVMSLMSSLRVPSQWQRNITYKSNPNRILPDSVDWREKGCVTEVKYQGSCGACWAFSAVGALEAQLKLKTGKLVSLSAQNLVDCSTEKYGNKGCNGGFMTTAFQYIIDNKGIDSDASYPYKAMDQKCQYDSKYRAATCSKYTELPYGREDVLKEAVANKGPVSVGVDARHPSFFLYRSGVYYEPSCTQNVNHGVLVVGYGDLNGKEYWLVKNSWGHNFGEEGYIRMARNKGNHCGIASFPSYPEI
A further data set is described as follows: in vitro. The note with it: male, human, plasma.
The test system of data set [3] is SARS-CoV-2. Kind of data set: microbe, parasite or virus in culture. The settings on record: Severe acute respiratory syndrome coronavirus 2, JPN/TY/WK-521, VeroE6/TMPRSS2, 24 h, read-out: INH.
The subject of data set [4] is SARS-CoV-2. Kind of data set: microbe, parasite or virus in culture. The note with it: Severe acute respiratory syndrome coronavirus 2, JPN/TY/WK-521, VeroE6/TMPRSS2.
The nature of data set [5]: Stability of compound in DMEM assessed as time required for 50% compound degradation at 100 uM incubated for 24 hrs by HPLC method.
Data set [6] deals with SARS-CoV-2. Kind of data set: microbe, parasite or virus in culture. The settings on record: Severe acute respiratory syndrome coronavirus 2, JPN/TY/WK-521, VeroE6/TMPRSS2, 24 h, read-out: INH. The source holds these as a separate data set.
The test system of data set [7] is SARS-CoV-2. Kind of data set: microbe, parasite or virus in culture. The note with it: Severe acute respiratory syndrome coronavirus 2, JPN/TY/WK-521, VeroE6/TMPRSS2. This is another data set of the same source.
Data set [8] concerns SARS-CoV-2. Kind of data set: microbe, parasite or virus in culture. The note with it: Severe acute respiratory syndrome coronavirus 2, WK-521, Vero C1008.

`CN(C(=O)[C@H](Cc1cccs1)NC(=O)[C@@H](NC(=O)c1cccs1)C(C)(C)C)N(C#N)Cc1cccc(Cl)c1F`: the Ki at Procathepsin L was 130 nM; in data set [2] it was 6.45 nM. Besides, the IC50 in [1] is 9 nM.

As for `CN1C(=O)[C@H](Cc2ccccc2)NC(=O)COCCOCCOc2ccc(F)cc2CN1C#N`, the IC50 in data set [1] came out at 2610 nM. For the same compound, the Ki on Cathepsin S worked out at 765 nM.

Regarding `CN(C(=O)[C@H](Cc1ccccc1)NC(=O)[C@@H](NC(=O)c1cccs1)C1CCCCC1)N(C#N)Cc1ccc(Cl)cc1`, the values for the inhibitory constant (Ki) (at Procathepsin L; in [2]) were 25.1 nM and 13 nM, respectively. The compound further yielded a 50% inhibitory concentration (IC50) in data set [1] of 18 nM.

The compound `CN1C(=O)[C@H](Cc2ccccc2)N(C(=O)COc2ccc(Cl)cc2Cl)CCCOc2ccc(Cl)c(F)c2CN1C#N` showed a half-maximal inhibitory concentration (IC50) in data set [1] of 57 nM. Also, at Cathepsin S, the Ki was 1820 nM.

As for `CN(C(=O)[C@H](Cc1ccccc1)NC(=O)[C@@H](NC(=O)c1cccs1)C(C)(C)C)N(C#N)Cc1ccc(Cl)cc1`, the inhibition constant Ki came to 179 nM at Procathepsin L and 13.3 nM in data set [2]. 19 nM corresponded to half-maximal inhibition in data set [1] (IC50).

In data set [1], `CN1C(=O)[C@H](Cc2ccccc2)N(C(=O)CNC(=O)c2cccs2)CC2(CC2)COc2c(Cl)cccc2CN1C#N` registered an IC50 of 30 nM. Further, the inhibitory constant (Ki) in data set [2] was 21.1 nM.

In “in vitro”, `CCN(CC)CCOC(=O)c1ccc(N)cc1.Cl` [PROCAINE HYDROCHLORIDE] showed a half-life at 100 µM of 0.103 h.

`CN1C(=O)[C@H](CCc2ccccc2)NC(=O)COCCOc2ccc(F)cc2CN1C#N` displayed a 50% inhibitory concentration (IC50) in [1] of 1470 nM. On Cathepsin S, the Ki stood at 179 nM.

Turning to `CN1C(=O)[C@H](Cc2ccccc2)N(C(=O)COc2ccc(Cl)cc2Cl)CCCOc2c(Cl)cccc2CN1C#N`, in the data set with SARS-CoV-2 [3], the inhibition at […] came to 58%. In addition, the concentration for half-maximal inhibition (IC50) in data set [1] was found to be 38 nM. This compound also displayed a half-life at 100 µM in the data set “in vitro” of 1.92 h. The compound also registered a Ki in [2] of 26.8 nM. In addition, it took 2140 nM to reach a half-maximal effect with SARS-CoV-2 [4] (EC50). Besides, the half-life at 24 h, 100 µM in data set [5] is 1.76 h.

With `CN(C(=O)[C@H](Cc1ccccc1)NC(=O)[C@@H](NC(=O)C1CCCC1)C(C)(C)C)N(C#N)Cc1ccc(Cl)cc1`, the Ki was found to be 344 nM on Procathepsin L and 23 nM in [2]. In addition, in data set [1], the IC50 is 32 nM.

Regarding `CN(C(=O)[C@H](Cc1cccc(Cl)c1)NC(=O)[C@@H](NC(=O)c1cccs1)C(C)(C)C)N(C#N)Cc1cccc(Cl)c1F`, the inhibitory constant (Ki) on Procathepsin L was 163 nM. In addition, the IC50 in data set [1] turned out to be 9 nM.

In turn, `CN1C(=O)[C@H](Cc2ccccc2)N(C(=O)CNC(=O)c2cccs2)CCCOc2c(Cl)cccc2CN1C#N` yielded an IC50 in [1] of 3 nM. Moreover, the Ki was 470 nM on Cathepsin S and 2.29 nM in data set [2]. For the same compound, in “in vitro”, the half-life at 100 µM came to 3 h. In the data set with SARS-CoV-2 [4], the concentration for a half-maximal effect (EC50) came to 2550 nM. For the same compound, the inhibition at 3.33 µM in the data set with SARS-CoV-2 [6] amounted to 63%. Besides, in data set [5], the half-life at 24 h, 100 µM is 7.65 h.

In “in vitro”, `COc1ccc([C@@H]2Sc3ccccc3N(CCN(C)C)C(=O)[C@@H]2OC(C)=O)cc1.Cl` [DILTIAZEM HYDROCHLORIDE] gave a half-life at 100 µM of 13.1 h.

Consider `CN1C(=O)[C@H](Cc2ccccc2)N(C(=O)[C@@H](NC(=O)c2cccs2)C(C)(C)C)CCCOc2ccc(Cl)c(F)c2CN1C#N`, for which, on Cathepsin S, the Ki stood at 3020 nM.

With `CC(C)(C)[C@H](NC(=O)C(F)(F)F)C(=O)N1C[C@H]2[C@@H]([C@H]1C(=O)N[C@H](C#N)C[C@@H]1CCNC1=O)C2(C)C`, the results for the IC50 in the data set with SARS-CoV-2 [7] and with SARS-CoV-2 [8] were 160 nM and 940 nM, respectively. This compound registered an EC50 with SARS-CoV-2 [4] of 860 nM. Also, in the data set on SARS-CoV-2 [6], the inhibition at 3.33 µM is 93%.

As for `CN(C(=O)[C@H](Cc1ccccc1)NC(=O)[C@@H](NC(=O)c1cccs1)C(C)(C)C)N(C#N)Cc1cccc(Cl)c1F`, on Procathepsin L, the inhibition constant (Ki) amounted to 93.5 nM. The compound also showed a 50% inhibitory concentration (IC50) in data set [1] of 15 nM.

For `CN1C(=O)[C@H](CCc2ccccc2)NC(=O)COCCOCCOc2ccc(F)cc2CN1C#N`, the inhibition constant Ki at Cathepsin S is 662 nM.
